{"source": "patent US20080119412A1", "about": "“Polypeptides for Modulating Binding of Trp Channel Proteins and Trp- Associated Proteins” (NoNO Inc., priority 2003, published 2008)", "key": {"[1]": {"molecular_target": "T1, TIP1 d1 (Homo sapiens, UniProt O14907)", "T1 construct": "made in house; host or cells: E. coli (DH5alpha, BL21 or JM109)", "T1 sequence (O14907 14-116)": "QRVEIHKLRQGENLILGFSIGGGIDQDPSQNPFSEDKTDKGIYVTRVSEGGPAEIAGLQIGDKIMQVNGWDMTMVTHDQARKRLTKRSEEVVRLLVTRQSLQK", "assay": "G3 assay titration, GST-PDZ fusion / biotinylated peptide", "type": "binding", "procedure": "The G3 assay is identical to the G0 assay with the following exceptions. The peptides are typically present at 0.1 μM rather than 20 μM. The peptides are also pre-incubated with the HRP-streptavidin prior to adding to the assay plate. In the G0 assay, free peptide is incubated with the PDZ proteins prior to the addition of the HRP-streptavidin. Thus, for the G0 assay one can lose signal if the bound peptide dissociates from the PDZ protein prior to the addition of the HRP-streptavidin. In the G3 modified assay the HRP-streptavidin/peptide complex is added to the plate in one step, thus increasing the likelihood that all the bound peptide will be bound to HRP-streptavidin. The G3 modified assay increases the chance of observing weak interactions.\nThis example describes assays to identify binding between TRPM7 and PDZ domains. GST-PDZ fusions are produced that each contain an entire PDZ domain (or multiple PDZ domains), the collection encompassing approximately 90% of all PDZ domains identified in the human genome. (See Table 5 and Section V (PDZ Proteins and PL Protein Interactions Disclosure). Biotinylated peptide corresponding to 11 residues of Tat coupled to the C-terminal 9 amino acids of TRPM7 ([…]; SEQ ID NO:258) is synthesized and purified by HPLC.\n• Nunc MaxiSorp 96 well Immuno-plate, Nunc • PBS pH 7.4 (phosphate buffered saline, 8 g NaCl, 0.29 g KCl, 1.44 g Na2HPO4, 0.24 g KH2PO4, add H2O to 1 liter and pH 7.4; 0.2 μm filter) • Assay Buffer: 2% BSA in PBS (20 g of bovine serum albumin per liter PBS, fraction V, ICN Biomedicals, cat#IC15142983 • Goat anti-GST polyclonal Ab, stock 5 mg/ml, stored at 4° C., Amersham Pharmacia cat#27-4577-01 • Dilute 1:1000 in PBS, final concentration 5 μg/ml. • HRP-Streptavidin, 2.5 mg/2 ml stock stored at 4° C., Zymed cat#43-4323, dilute 1:2000 into Assay buffer, final concentration of […] • Wash Buffer, PBS • Biotinylated peptides (HPLC purified, stock solution stored in −20° C. freezer) • GST-PRISM proteins (stock stored at −80° C., after 1st thaw store in −10° C. freezer) • TMB (3,3′,5,5′, teramethylbensidine), tablets, Sigma cat.#T5525 • Per plate, dissolve 1 tablet in 1 ml DMSO, add 9 ml Citrate/Phosphate buffer pH 5.4 and 2 μL H2O2 • 0.1 M H2SO4, Sigma cat.#S1526 • 12-w multichannel pipettor & tips • 50 ml reagent reservoirs, Costar#4870 • 50, 15 ml polypropylene conical tubes • Costar Transtar 96 Costar #7605 • Transtar 96 Cartridge Costar #7610 • Molecular Devices microplate reader (450 & 650 nm filters) with SoftMax Pro software *When using reagents stored at or 4° C. or −20° C., remove & keep on ice\n• 1. Coat plate with 100 μl of 5 μg/ml anti-GST, overnight at 4° C. • 2. Dump contents of plate & out tap dry on paper towels • 3. Block with 200 μl Assay Buffer for 2 hrs at room temperature • 4. Prepare proteins at 5 μg/ml in Assay Buffer • 5. Wash 3× with cold PBS (4° C.), avoiding letting the plates dry out • 6. Add proteins at 50 μl per well, incubate 1 to 2 hrs at 4° C. • 7. Prepare peptides to desired concentration in Assay Buffer • 8. Wash 3× with cold PBS (4° C.), avoiding letting the plates dry out • 9. Add HRP-Streptavidin/peptide complex [prepared by incubating for 20 minutes at room temperature HRP-Streptavidin (1:2000) with the desired biotin-peptide concentration for 20 minutes at room temperature] at 50 μl per well on ice • 10. Place at room temperature for exactly 30 minutes • 11. Promptly wash 5× with PBS at room temperature • 12. Add 100 μl/well TMB substrate (write time on plate) • 13. Incubate in dark at room temperature for a maximum of 30 minutes • 14. Read plate at 25 minutes (650 nm), optional • 15. Stop reaction with 100 μl of 0.18 M H2SO4, 30 minutes after adding TMB • Take last reading at 450 nm soon after stopping reaction\nThe G3 assay was performed on a subset of the PDZ domains as in Example II except that the concentration of peptide was 0.002 μM, […], 0.1 μM, 0.2 μM, 1 μM, and 2 μM. Data was fitted to the equation: […]"}, "[2]": {"tested_on": "neurons", "assay": "Oxygen-glucose deprivation (OGD) of neurons: ROS production, calcium uptake, cell death", "type": "cell-based", "conditions": "prolonged OGD, FIG. 7", "procedure": "The fraction of dead cells was determining by dividing the number of neurons expressing GFP which became stained with propidium iodide 20 h after OGD by the number of neurons expressing GFP at the beginning of the experiment. Data for each culture was obtained from counting cells in 3 high power microscope fields per experiment."}, "[3]": {"molecular_target": "TRPM7 (Homo sapiens, UniProt Q96QT4)", "sequence (Q96QT4 whole entry)": "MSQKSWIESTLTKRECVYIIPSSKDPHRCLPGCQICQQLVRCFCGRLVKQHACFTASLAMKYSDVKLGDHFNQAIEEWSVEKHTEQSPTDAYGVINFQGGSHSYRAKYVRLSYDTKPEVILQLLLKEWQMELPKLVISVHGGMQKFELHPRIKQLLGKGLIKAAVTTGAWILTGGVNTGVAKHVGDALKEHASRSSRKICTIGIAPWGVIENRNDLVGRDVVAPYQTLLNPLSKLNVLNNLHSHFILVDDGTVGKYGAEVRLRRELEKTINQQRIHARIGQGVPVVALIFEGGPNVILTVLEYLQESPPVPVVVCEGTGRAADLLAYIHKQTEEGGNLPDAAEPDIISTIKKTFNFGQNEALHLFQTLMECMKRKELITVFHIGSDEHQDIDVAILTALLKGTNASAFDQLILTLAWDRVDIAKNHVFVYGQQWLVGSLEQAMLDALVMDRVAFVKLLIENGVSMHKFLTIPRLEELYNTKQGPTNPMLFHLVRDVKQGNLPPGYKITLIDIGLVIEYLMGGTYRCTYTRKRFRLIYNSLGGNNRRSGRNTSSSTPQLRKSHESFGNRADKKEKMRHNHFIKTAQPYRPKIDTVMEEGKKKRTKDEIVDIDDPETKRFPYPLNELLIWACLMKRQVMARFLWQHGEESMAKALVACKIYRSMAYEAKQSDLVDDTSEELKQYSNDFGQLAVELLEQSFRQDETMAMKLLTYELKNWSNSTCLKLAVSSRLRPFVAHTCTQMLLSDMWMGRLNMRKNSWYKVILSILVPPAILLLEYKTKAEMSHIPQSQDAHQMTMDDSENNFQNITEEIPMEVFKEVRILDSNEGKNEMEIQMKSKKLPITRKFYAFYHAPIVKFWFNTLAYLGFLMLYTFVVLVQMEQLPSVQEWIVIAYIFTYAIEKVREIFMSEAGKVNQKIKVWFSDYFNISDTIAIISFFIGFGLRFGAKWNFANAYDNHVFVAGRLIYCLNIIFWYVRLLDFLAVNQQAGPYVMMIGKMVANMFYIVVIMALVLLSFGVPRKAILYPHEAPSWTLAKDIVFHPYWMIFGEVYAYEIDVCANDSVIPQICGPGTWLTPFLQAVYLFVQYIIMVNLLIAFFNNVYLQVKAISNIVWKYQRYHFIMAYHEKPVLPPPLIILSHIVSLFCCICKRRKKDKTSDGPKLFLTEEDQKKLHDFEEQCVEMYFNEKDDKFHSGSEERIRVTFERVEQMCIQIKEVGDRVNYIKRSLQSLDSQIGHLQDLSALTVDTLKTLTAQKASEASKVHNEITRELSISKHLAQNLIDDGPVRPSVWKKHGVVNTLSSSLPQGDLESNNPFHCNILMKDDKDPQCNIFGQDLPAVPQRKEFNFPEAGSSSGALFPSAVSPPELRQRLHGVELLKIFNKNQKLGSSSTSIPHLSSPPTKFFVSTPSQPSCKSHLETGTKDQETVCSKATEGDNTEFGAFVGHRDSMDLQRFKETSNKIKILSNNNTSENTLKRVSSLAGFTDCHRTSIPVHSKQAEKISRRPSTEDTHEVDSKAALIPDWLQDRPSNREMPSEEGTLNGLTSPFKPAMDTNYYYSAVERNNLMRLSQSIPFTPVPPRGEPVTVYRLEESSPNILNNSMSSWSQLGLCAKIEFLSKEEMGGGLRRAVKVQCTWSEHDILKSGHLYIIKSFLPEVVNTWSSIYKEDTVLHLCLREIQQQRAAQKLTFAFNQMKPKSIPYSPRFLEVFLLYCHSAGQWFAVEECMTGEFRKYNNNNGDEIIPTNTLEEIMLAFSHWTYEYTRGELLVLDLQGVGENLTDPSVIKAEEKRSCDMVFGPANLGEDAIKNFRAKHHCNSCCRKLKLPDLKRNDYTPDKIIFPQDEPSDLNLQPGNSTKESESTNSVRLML", "conditions": "intracellular free; cited from earlier work"}, "[4]": {"tested_on": "neurons", "assay": "Neuronal survival 20 h after NMDA challenge (FIG. 14)", "type": "cell-based", "conditions": "20 h after 1 h NMDA challenge; peptide applied immediately after the NMDA challenge", "procedure": "The sequence of Tat-9cTRPM7 is: [[…] or [[…]-[…]], whereby the first 11 residues correspond to the cell membrane transduction domain of the human immunodeficiency virus type 1 (HIV-1) Tat protein and the last 9 residues correspond to the last 9 amino acids of the C-terminus of human TRPM7 (accession Q96QT4). […] (A) Neuronal survival at 20 h in the indicated concentrations of Tat-9cTRPM7 in the absence of excitotoxic challenge. (B) Neuronal survival 20 h after challenging the cultures for 1 h with the indicated concentration of NMDA. Tat-9cTRPM7 was applied immediately after the NMDA challenge.\nThe sequence of Tat-9cTRPM7 is: [[…]-[…]; SEQ ID NO:258], whereby the first 11 residues correspond to the cell-membrane transduction domain of the human immunodeficiency virus type 1 (HIV-1) Tat protein and the last 9 residues correspond to the last 9 amino acids of the C-terminus of human TRPM7 (accession Q96QT4). (A) Neuronal survival at 20 h in the indicated concentrations of Tat-9cTRPM7 in the absence of excitotoxic challenge. (B) Neuronal survival 20 h after challenging the cultures for 1 h with the indicated concentration of NMDA. Tat-9cTRPM7 was applied immediately after the NMDA challenge."}}, "note": "Residues, ends and D or L forms follow the SMILES beside them. No end group written: not given here. *: point of attachment. Biotin = O=C1N[C@H]2[C@H](CS[C@H]2CCCCC(=O)*)N1"}
{"molecule": "CC(C)[C@H](NC(=O)[C@H](CCC(=O)O)NC(=O)[C@@H](NC(=O)[C@H](CCC(=O)O)NC(=O)[C@H](CCCNC(=N)N)NC(=O)[C@H](Cc1ccccc1)NC(=O)[C@H](Cc1c[nH]cn1)NC(=O)[C@H](CCCCN)NC(=O)[C@H](CCC(=O)O)NC(=O)[C@H](CCCNC(=N)N)NC(=O)[C@H](CCCNC(=N)N)NC(=O)[C@H](CCCNC(=N)N)NC(=O)[C@H](CCC(N)=O)NC(=O)[C@H](CCCNC(=N)N)NC(=O)[C@H](CCCNC(=N)N)NC(=O)[C@H](CCCCN)NC(=O)[C@H](CCCCN)NC(=O)[C@H](CCCNC(=N)N)NC(=O)CNC(=O)[C@H](Cc1ccc(O)cc1)NC(=O)CCCC[C@@H]1SC[C@@H]2NC(=O)N[C@@H]21)[C@@H](C)O)C(=O)O", "note": "[AA353] (Biotin-YGRKKRRQRRREKHFRETEV-OH)", "values": [{"measurement": "EC50", "setting": "[1]", "value": "< 2", "unit": "nM"}]}
{"molecule": "[Gd+3]", "note": "[Gd^3+]", "values": [{"measurement": "survival of neurons", "setting": "[2]", "value": "permit survival of neurons destined to die from prolonged OGD"}]}
{"molecule": "[Mg+2]", "note": "[Mg^2+]", "values": [{"measurement": "concentration inhibiting TRPM7", "setting": "[3]", "value": 0.6, "unit": "mM"}]}
{"molecule": "YGRKKRRQRRRSTNSVRLML [Tat-9cTRPM7]", "values": [{"measurement": "Neuronal survival", "setting": "[4]", "value": "enhanced survival"}]}
